Data reported in USRE48805E1, “Method for cancer targeting treatment and detection of arginine using albumin-binding arginine deiminase fusion protein” (Vision Global Holdings Ltd., priority 2013, dated 2021).

Legend:
[1] = system: Mia-paca-2 pancreatic cancer cell xenografts; experiment: In vivo efficacy on Mia-paca-2 pancreatic cancer cell xenografts; design: species or system Nude balb/c mice (human pancreatic cancer xenograft); details: 100 mg/kg once a week, intraperitoneal, end of the time course
Procedure: Nude balb/c mice (4-6 weeks) are used and they are allowed to acclimatize for a week before the treatment. Mice are inoculated subcutaneously with 2×10^6 cancer cells in 100 μl of 1:1 PBS:Matrigel. Matrigel is used to augment the growth of tumors. Two weeks later, the mice are randomly separated into four groups of 4 animals in each group. Mice are intraperitoneally administered with PBS (control), AAD (5 U; twice a week), Gemcitabine, Gem (100 mg/kg; once a week) or AAD+Gem (a combination of both AAD and Gem) in 200 μl PBS. Tumor size is measured by caliper and tumor volume is calculated using formula: (length×width^2)/2. Body weight is measured every week. After the mice are sacrificed by end of the time course, the tumors are excised and weighed. […] The difference in the tumor size between control and AAD fusion protein-treatment group is about 60% at Day 28.

[2] = system: 22Rv1 prostate cancer cell xenografts; experiment: In vivo efficacy on 22Rv1 prostate cancer cell xenografts; design: species or system Nude balb/c mice (human prostate cancer xenograft); details: 10 mg/kg once a week, intraperitoneal
Procedure: Nude balb/c mice (4-6 weeks) are used and they are allowed to acclimatize for a week before the treatment. Mice are inoculated subcutaneously with 3×10^6 cancer cells in 100 μl PBS. Two weeks later, the mice are randomly separated into four groups of 5 animals in each group. Mice are intraperitoneally administered with PBS (control), AAD (5 U; twice a week), Docetaxel, DTX (10 mg/kg; once a week) or AAD+DTX (a combination of both AAD and DTX) in 200 ul PBS. Tumor size is measured by caliper and tumor volume is calculated using formula: (length×width^2)/2. Body weight is measured every week. After the mice are sacrificed by end of the time course, the tumors are excised and weighed.
The difference in the tumor size between control and AAD fusion protein- or DTX-treatment groups are about 55% and 54% at Day 22, respectively. Besides, the combination of AAD fusion protein and DTX-treatment group has a synergistic effect on tumor growth inhibition. Tumor growth of the combination treatment group is inhibited by about 94% when compared to that of the control group.

| SMILES | tumor size compared to control [1] | difference in the tumor size between control and DTX-treatment group ([2]; Day 22) [%] | tumor size compared to control ([2]; end of the time course) |
| --- | --- | --- | --- |
| Nc1ccn([C@@H]2O[C@H](CO)[C@@H](O)C2(F)F)c(=O)n1 [Gemcitabine] | significantly lower than that in control | – | – |
| CC(=O)O[C@@]12CO[C@@H]1C[C@H](O)[C@@]1(C)C(=O)[C@H](O)C3=C(C)[C@@H](OC(=O)[C@H](O)[C@@H](NC(=O)OC(C)(C)C)c4ccccc4)C[C@@](O)([C@@H](OC(=O)c4ccccc4)[C@H]21)C3(C)C [docetaxel] | – | ~54 | significantly lower than that in control |
